Article PMC10294832, “Investigation of Naphthyl–Polyamine Conjugates as Antimicrobials and Antibiotic Enhancers” (Antibiotics, 2023)
In brackets after ≈: the same amount, converted by molar mass. Several values for one entry are separate records, joined by “and”; a condition that tells them apart may be missing. Identical values can stand only once. Like-named read-outs stand apart in the source and are kept apart here.

How the values were obtained:
[1] = system: C. neoformans (ATCC 208821); assay: Antifungal MIC, C. neoformans; type: cell-based, Cryptococcus neoformans; conditions: Cryptococcus neoformans, ATCC208821, C. neoformans (ATCC 208821); mean (n = 2)
Experimental: (§1) The susceptibility of bacterial strains S. aureus (ATCC 25,923 or 29213), E. coli (ATCC 25922), and P. aeruginosa (ATCC 27853) to antibiotics and compounds was determined according to previously reported protocols. Additional antimicrobial evaluation against MRSA (ATCC 43300), Klebsiella pneumoniae (ATCC 700603), Acinetobacter baumannii (ATCC 19606), Candida albicans (ATCC 90028), and Cryptococcus neoformans (ATCC 208821) was undertaken at the Community for Open Antimicrobial Drug Discovery at The University of Queensland (Australia) according to their standard protocols as reported previously.

[2] = system: C. albicans (ATCC 90028); assay: Antifungal MIC, C. albicans; type: cell-based; conditions: Candida albicans, ATCC90028, mean (n = 2)
Experimental: as §1

[3] = system: P. aeruginosa (PAO1 or ATCC 27853); assay: Antimicrobial MIC, P. aeruginosa; type: cell-based; conditions: Pseudomonas aeruginosa
Experimental: as §1

[4] = system: human red blood cells; assay: Hemolytic assay; type: cell-based; conditions: concentration at 10% hemolytic activity on human red blood cells; mean (n = 2)
Experimental: Hemolysis assays were conducted using the protocols previously reported.

[5] = system: S. aureus (ATCC 25,923 or ATCC 29213); assay: Antimicrobial MIC, S. aureus; type: cell-based, Staphylococcus aureus; conditions: Staphylococcus aureus, mean (n = 3)
Experimental: as §1

[6] = Cytotoxicity assay; type: cell-based, human; conditions: human, HEK293 human embryonic kidney cells, concentration at 50% cytotoxicity on HEK293 cells; mean (n = 2)
Experimental: Cytotoxicity assays were conducted using the protocols previously reported.

[7] = system: MRSA (ATCC 43300); assay: Antimicrobial MIC, MRSA; type: cell-based, methicillin-resistant Staphylococcus aureus; conditions: Staphylococcus aureus, read-out: MIC MRSA
Experimental: as §1

[8] = system: E. coli (ATCC 25922); assay: Enhancement of erythromycin activity; type: cell-based, Escherichia coli; conditions: for Eryth/E.c: concentration required to restore erythromycin activity (combination MIC): erythromycin fixed at 10.9 µM (8 µg/mL), E. coli (ATCC 25922); for Eryth/E.c fold change: ratio between intrinsic MIC of test compound and combination MIC, erythromycin 10.9 µM, E. coli
Experimental: Restoring enhancer concentrations were determined using previously reported protocols.

[9] = system: K. pneumoniae (ATCC 700603); assay: Antimicrobial MIC, K. pneumoniae; type: cell-based; conditions: Klebsiella pneumoniae, ATCC700603, mean (n = 2)
Experimental: as §1

[10] = system: A. baumannii (ATCC 19606); assay: Antimicrobial MIC, A. baumannii; type: cell-based, Acinetobacter baumannii; conditions: Acinetobacter baumannii, ATCC19606, A. baumannii (ATCC 19606); mean (n = 2)
Experimental: as §1

[11] = system: E. coli (ATCC 25922); assay: Antimicrobial MIC, E. coli; type: cell-based, Escherichia coli; conditions: Escherichia coli, ATCC25922, E. coli (ATCC 25922); mean (n = 2)
Experimental: as §1

[12] = system: P. aeruginosa (ATCC 27853); assay: Enhancement of doxycycline activity; type: cell-based, Pseudomonas aeruginosa; conditions: for Concentration of test compound required to restore doxycycline activity / Dox/P.a: concentration required to restore doxycycline activity (combination MIC): P. aeruginosa (ATCC 27853); for Dox/P.a: concentration required to restore doxycycline activity (combination MIC): doxycycline fixed at 4.5 µM (2 µg/mL); for Dox/P.a fold change: ratio between intrinsic MIC of test compound and combination MIC, doxycycline 4.5 µM, P. aeruginosa
[13] = P. aeruginosa (PAO1 or ATCC 27853), mean (n = 3), read-out: MIC P. a
[14] = MRSA (ATCC 43300), mean (n = 2)

| SMILES | MIC [1] [µM] | MIC [2] [µM] | MIC [3, 13] [µM] | MIC [5] [µM] | IC50 [6] [µM] | MIC [7, 14] [µM] | MIC [9] [µM] | MIC [10] [µM] | MIC [11] [µM] | other results |
| --- | --- | --- | --- | --- | --- | --- | --- | --- | --- | --- |
| OC(Cn1cncn1)(Cn1cncn1)c1ccc(F)cc1F [fluconazole, reference compound] | 26 (≈ 7.96 µg/mL) | 0.4 (≈ 0.123 µg/mL) | – | – | – | – | – | – | – | – |
| O=C(NCCCNCCCCCCCCNCCCNC(=O)c1cccc2ccccc12)c1cccc2ccccc12.O=C(O)C(F)(F)F.O=C(O)C(F)(F)F [Compound 17d, N^1,N^8-Bis(3-(1-naphthamido)propyl)octane-1,8-diaminium 2,2,2-trifluoroacetate] | > 40.3 | > 40.3 | > 100 | 50 | > 40.3 | > 40.3 | > 40.3 | > 40.3 | 100 | Hemolysis HC10 [4]: >40.3 µM; Eryth/E.c: concentration required to restore erythromycin activity (combination MIC) [8]: 31.5 µM; Eryth/E.c fold change [8]: 3 fold |
| O=C(CCC(=O)Nc1ccc2ccccc2c1)NCCCNCCCCNCCCNC(=O)CCC(=O)Nc1ccc2ccccc2c1.O=C(O)C(F)(F)F.O=C(O)C(F)(F)F [Compound 20a, N^1,N^4-Bis(3-(4-(naphthalen-2-ylamino)-4-oxobutanamido)propyl)butane-1,4-diaminium 2,2,2-trifluoroacetate] | > 36.3 | > 36.3 | 568 | 57 | > 36.3 | 18.2 | > 36.3 | > 36.3 | 227 | Hemolysis HC10 [4]: >36.3 µM; Concentration of test compound required to restore doxycycline activity ([12]; doxycycline concentration 2 µg/mL): 28.4 µM; Concentration of test compound required to restore doxycycline activity ([12]; doxycycline concentration 4 µg/mL): 14.2 µM; Concentration of test compound required to restore doxycycline activity ([12]; doxycycline concentration 6 µg/mL): 14.2 µM; Concentration of test compound required to restore doxycycline activity ([12]; doxycycline concentration 8 µg/mL): 3.5 µM; Dox/P.a: concentration required to restore doxycycline activity (combination MIC) [12]: 28 µM; Dox/P.a fold change [12]: 20 fold |
| CN[C@H](CC(C)C)C(=O)N[C@H]1C(=O)N[C@@H](CC(N)=O)C(=O)N[C@H]2C(=O)N[C@H]3C(=O)N[C@H](C(=O)N[C@H](C(=O)O)c4cc(O)cc(O)c4-c4cc3ccc4O)[C@H](O)c3ccc(c(Cl)c3)Oc3cc2cc(c3O[C@@H]2O[C@H](CO)[C@@H](O)[C@H](O)[C@H]2O[C@H]2C[C@](C)(N)[C@H](O)[C@H](C)O2)Oc2ccc(cc2Cl)[C@H]1O [vancomycin, reference compound] | – | – | – | – | – | – | – | – | – | MIC [7]: 0.7 µM (≈ 1.01 µg/mL) |
| CC/C(=C(\c1ccccc1)c1ccc(OCCN(C)C)cc1)c1ccccc1 [tamoxifen, reference compound] | – | – | – | – | 24 | – | – | – | – | – |
| O=C(CCC(=O)Nc1cccc2ccccc12)NCCCNCCCCNCCCNC(=O)CCC(=O)Nc1cccc2ccccc12.O=C(O)C(F)(F)F.O=C(O)C(F)(F)F [Compound 18a, N^1,N^4-Bis(3-(4-(naphthalen-1-ylamino)-4-oxobutanamido)propyl)butane-1,4-diaminium 2,2,2-trifluoroacetate] | > 36.3 | > 36.3 | 568 | 568 | – | > 36.3 | > 36.3 | > 36.3 | 568 | Dox/P.a: concentration required to restore doxycycline activity (combination MIC) [12]: 568 µM; Dox/P.a fold change [12]: 1 fold; Eryth/E.c: concentration required to restore erythromycin activity (combination MIC) [8]: 568 µM; Eryth/E.c fold change [8]: 1 fold |
| O=C(N[C@H](CO)[C@H](O)c1ccc([N+](=O)[O-])cc1)C(Cl)Cl [chloramphenicol, reference compound] | – | – | – | 1.5 to 3 (≈ 0.485 to 0.969 µg/mL) | – | – | – | – | – | – |
| C[C@H]1c2cccc(O)c2C(=O)C2=C(O)[C@]3(O)C(=O)C(C(N)=O)=C(O)[C@@H](N(C)C)[C@@H]3[C@@H](O)[C@@H]21 [doxycycline, reference compound] | – | – | – | – | – | – | – | – | – | MIC ([3]; antibiotic alone, P. aeruginosa, read-out: intrinsic MIC against P. aeruginosa): 40 µg/mL and 90 µM |
| [H]/N=C(/N)N[C@H]1[C@H](O)[C@@H](O)[C@H](O[C@@H]2O[C@@H](C)[C@](O)(C=O)[C@H]2O[C@@H]2O[C@@H](CO)[C@H](O)[C@@H](O)[C@@H]2NC)[C@@H](N/C(N)=N\[H])[C@@H]1O [streptomycin, reference compound] | – | – | 21.5 (≈ 12.5 µg/mL) | 21.5 (≈ 12.5 µg/mL) | – | – | – | – | – | – |
